According to ChEMBL document CHEMBL5108027, “An unanticipated discovery of novel naphthalimidopropanediols as potential broad-spectrum antibacterial members” (Eur J Med Chem, 2022):
≈ marks a conversion by molar mass, not a printed value.

Columns and labels:
Assay type in all cases: functional
[1] = system: Staphylococcus aureus; test: Antibacterial activity against methicillin-resistant Staphylococcus aureus N315 measured by Muller-Hinton broth based microdilution assay
[2] = system: Enterococcus faecalis; test: Antibacterial activity against Enterococcus faecalis measured by Muller-Hinton broth based microdilution assay
[3] = system: Staphylococcus aureus; test: Antibacterial activity against Staphylococcus aureus measured by Muller-Hinton broth based microdilution assay
[4] = system: Staphylococcus aureus; test: Antibacterial activity against Staphylococcus aureus ATCC 25923 measured by Muller-Hinton broth based microdilution assay
[5] = system: Staphylococcus aureus; test: Antibacterial activity against Staphylococcus aureus ATCC 29213 measured by Muller-Hinton broth based microdilution assay
[6] = system: Klebsiella pneumoniae; test: Antibacterial activity against Klebsiella pneumoniae measured by Muller-Hinton broth based microdilution assay
[7] = system: Escherichia coli; test: Antibacterial activity against Escherichia coli measured by Muller-Hinton broth based microdilution assay
[8] = system: Pseudomonas aeruginosa; test: Antibacterial activity against Pseudomonas aeruginosa measured by Muller-Hinton broth based microdilution assay
[9] = system: Acinetobacter baumannii; test: Antibacterial activity against Acinetobacter baumannii measured by Muller-Hinton broth based microdilution assay
[10] = system: Pseudomonas aeruginosa; test: Antibacterial activity against Pseudomonas aeruginosa ATCC 27853 measured by Muller-Hinton broth based microdilution assay
[11] = system: Escherichia coli; test: Antibacterial activity against Escherichia coli ATCC 25922 measured by Muller-Hinton broth based microdilution assay

SMILES | MIC [1] | MIC [2] | MIC [3] | MIC [4] | MIC [5] | MIC [6] | MIC [7] | MIC [8] | MIC [9] | MIC [10] | MIC [11]
O=C1c2cccc3c(N/N=C/c4cc(=O)oc5cc(O)ccc45)ccc(c23)C(=O)N1C(CO)CO | 32 µg/mL (≈ 67.6 µM) | 128 µg/mL (≈ 270 µM) | 4 µg/mL (≈ 8.45 µM) | 8 µg/mL (≈ 16.9 µM) | 8 µg/mL (≈ 16.9 µM) | 4 µg/mL (≈ 8.45 µM) | 64 µg/mL (≈ 135 µM) | 64 µg/mL (≈ 135 µM) | 64 µg/mL (≈ 135 µM) | 4 µg/mL (≈ 8.45 µM) | 32 µg/mL (≈ 67.6 µM)
O=C1c2cccc3c(N/N=C/c4ccc5ccccc5n4)ccc(c23)C(=O)N1C(CO)CO | 2 µg/mL (≈ 4.54 µM) | 64 µg/mL (≈ 145 µM) | 4 µg/mL (≈ 9.08 µM) | 64 µg/mL (≈ 145 µM) | 128 µg/mL (≈ 291 µM) | 32 µg/mL (≈ 72.7 µM) | 4 µg/mL (≈ 9.08 µM) | 2 µg/mL (≈ 4.54 µM) | 64 µg/mL (≈ 145 µM) | 8 µg/mL (≈ 18.2 µM) | 64 µg/mL (≈ 145 µM)
CCCCCCCCCCn1cc(/C=N/Nc2ccc3c4c(cccc24)C(=O)N(C(CO)CO)C3=O)c2ccccc21 | 64 µg/mL (≈ 113 µM) | 64 µg/mL (≈ 113 µM) | 16 µg/mL (≈ 28.1 µM) | 16 µg/mL (≈ 28.1 µM) | 32 µg/mL (≈ 56.3 µM) | 16 µg/mL (≈ 28.1 µM) | 32 µg/mL (≈ 56.3 µM) | 128 µg/mL (≈ 225 µM) | 64 µg/mL (≈ 113 µM) | 32 µg/mL (≈ 56.3 µM) | 32 µg/mL (≈ 56.3 µM)
O=C(Cn1cc(/C=N/Nc2ccc3c4c(cccc24)C(=O)N(C(CO)CO)C3=O)c2ccccc21)N1CCOCC1 | 256 µg/mL (≈ 461 µM) | 128 µg/mL (≈ 230 µM) | 128 µg/mL (≈ 230 µM) | 64 µg/mL (≈ 115 µM) | 128 µg/mL (≈ 230 µM) | 256 µg/mL (≈ 461 µM) | 256 µg/mL (≈ 461 µM) | 256 µg/mL (≈ 461 µM) | 128 µg/mL (≈ 230 µM) | 128 µg/mL (≈ 230 µM) | 256 µg/mL (≈ 461 µM)
CN[C@H](CC(C)C)C(=O)N[C@H]1C(=O)N[C@@H](CC(N)=O)C(=O)N[C@H]2C(=O)N[C@H]3C(=O)N[C@H](C(=O)N[C@H](C(=O)O)c4cc(O)cc(O)c4-c4cc3ccc4O)[C@H](O)c3ccc(c(Cl)c3)Oc3cc2cc(c3O[C@@H]2O[C@H](CO)[C@@H](O)[C@H](O)[C@H]2O[C@H]2C[C@](C)(N)[C@H](O)[C@H](C)O2)Oc2ccc(cc2Cl)[C@H]1O [VANCOMYCIN] |  | 1 µg/mL (≈ 0.69 µM) |  |  |  |  |  |  |  |  | 
O=C1c2cccc(O)c2C(=O)c2c(O)cc(/C=N/Nc3ccc4c5c(cccc35)C(=O)N(C(CO)CO)C4=O)cc21 | 64 µg/mL (≈ 116 µM) | 64 µg/mL (≈ 116 µM) | 32 µg/mL (≈ 58 µM) | 64 µg/mL (≈ 116 µM) | 128 µg/mL (≈ 232 µM) | 32 µg/mL (≈ 58 µM) | 8 µg/mL (≈ 14.5 µM) | 16 µg/mL (≈ 29 µM) | 64 µg/mL (≈ 116 µM) | 64 µg/mL (≈ 116 µM) | 32 µg/mL (≈ 58 µM)
O=C1c2cccc3c(N/N=C/c4ccccc4O)ccc(c23)C(=O)N1C(CO)CO | 2 µg/mL (≈ 4.93 µM) | 16 µg/mL (≈ 39.5 µM) | 16 µg/mL (≈ 39.5 µM) | 32 µg/mL (≈ 78.9 µM) | 16 µg/mL (≈ 39.5 µM) | 4 µg/mL (≈ 9.87 µM) | 32 µg/mL (≈ 78.9 µM) | 64 µg/mL (≈ 158 µM) | 64 µg/mL (≈ 158 µM) | 64 µg/mL (≈ 158 µM) | 32 µg/mL (≈ 78.9 µM)
O=C1c2cccc3c(N/N=C/c4c[nH]c5ccccc45)ccc(c23)C(=O)N1C(CO)CO | 4 µg/mL (≈ 9.34 µM) | 64 µg/mL (≈ 149 µM) | 8 µg/mL (≈ 18.7 µM) | 8 µg/mL (≈ 18.7 µM) | 2 µg/mL (≈ 4.67 µM) | 64 µg/mL (≈ 149 µM) | 64 µg/mL (≈ 149 µM) | 4 µg/mL (≈ 9.34 µM) | 64 µg/mL (≈ 149 µM) | 32 µg/mL (≈ 74.7 µM) | 64 µg/mL (≈ 149 µM)
O=C(O)c1cn(C2CC2)c2cc(N3CCNCC3)c(F)cc2c1=O [CIPROFLOXACIN] | 4 µg/mL (≈ 12.1 µM) | 2 µg/mL (≈ 6.04 µM) | 2 µg/mL (≈ 6.04 µM) | 0.5 µg/mL (≈ 1.51 µM) | 8 µg/mL (≈ 24.1 µM) | 2 µg/mL (≈ 6.04 µM) |  |  | 2 µg/mL (≈ 6.04 µM) |  | 
N#Cc1ccc(/C=N/Nc2ccc3c4c(cccc24)C(=O)N(C(CO)CO)C3=O)cc1 | 32 µg/mL (≈ 77.2 µM) | 8 µg/mL (≈ 19.3 µM) | 4 µg/mL (≈ 9.65 µM) | 8 µg/mL (≈ 19.3 µM) | 2 µg/mL (≈ 4.83 µM) | 2 µg/mL (≈ 4.83 µM) | 32 µg/mL (≈ 77.2 µM) | 32 µg/mL (≈ 77.2 µM) | 32 µg/mL (≈ 77.2 µM) | 4 µg/mL (≈ 9.65 µM) | 16 µg/mL (≈ 38.6 µM)
O=C1c2cccc3c(N/N=C/c4ccc(OC(F)(F)F)cc4)ccc(c23)C(=O)N1C(CO)CO | 32 µg/mL (≈ 67.6 µM) | 2 µg/mL (≈ 4.22 µM) | 4 µg/mL (≈ 8.45 µM) | 32 µg/mL (≈ 67.6 µM) | 4 µg/mL (≈ 8.45 µM) | 2 µg/mL (≈ 4.22 µM) | 32 µg/mL (≈ 67.6 µM) | 8 µg/mL (≈ 16.9 µM) | 16 µg/mL (≈ 33.8 µM) | 8 µg/mL (≈ 16.9 µM) | 32 µg/mL (≈ 67.6 µM)
CCCCCCCCCCCCCCCCn1cc(/C=N/Nc2ccc3c4c(cccc24)C(=O)N(C(CO)CO)C3=O)c2ccccc21 | 64 µg/mL (≈ 98 µM) | 64 µg/mL (≈ 98 µM) | 8 µg/mL (≈ 12.3 µM) | 32 µg/mL (≈ 49 µM) | 64 µg/mL (≈ 98 µM) | 32 µg/mL (≈ 49 µM) | 32 µg/mL (≈ 49 µM) | 64 µg/mL (≈ 98 µM) | 64 µg/mL (≈ 98 µM) | 32 µg/mL (≈ 49 µM) | 64 µg/mL (≈ 98 µM)
O=C1c2cccc3c(N/N=C/c4ccccc4Cl)ccc(c23)C(=O)N1C(CO)CO | 64 µg/mL (≈ 151 µM) | 64 µg/mL (≈ 151 µM) | 64 µg/mL (≈ 151 µM) | 32 µg/mL (≈ 75.5 µM) | 8 µg/mL (≈ 18.9 µM) | 16 µg/mL (≈ 37.7 µM) | 128 µg/mL (≈ 302 µM) | 16 µg/mL (≈ 37.7 µM) | 64 µg/mL (≈ 151 µM) | 32 µg/mL (≈ 75.5 µM) | 64 µg/mL (≈ 151 µM)
